{
  "source": "ChEMBL document CHEMBL5465560",
  "about": "“Selectivity Literature for EUbOPEN Chemogenomic Library” (2024)",
  "key": {"[1]": {"target": "Rho-associated protein kinase 2 (Homo sapiens, UniProt O75116)", "sequence (O75116 whole entry, looked up)": "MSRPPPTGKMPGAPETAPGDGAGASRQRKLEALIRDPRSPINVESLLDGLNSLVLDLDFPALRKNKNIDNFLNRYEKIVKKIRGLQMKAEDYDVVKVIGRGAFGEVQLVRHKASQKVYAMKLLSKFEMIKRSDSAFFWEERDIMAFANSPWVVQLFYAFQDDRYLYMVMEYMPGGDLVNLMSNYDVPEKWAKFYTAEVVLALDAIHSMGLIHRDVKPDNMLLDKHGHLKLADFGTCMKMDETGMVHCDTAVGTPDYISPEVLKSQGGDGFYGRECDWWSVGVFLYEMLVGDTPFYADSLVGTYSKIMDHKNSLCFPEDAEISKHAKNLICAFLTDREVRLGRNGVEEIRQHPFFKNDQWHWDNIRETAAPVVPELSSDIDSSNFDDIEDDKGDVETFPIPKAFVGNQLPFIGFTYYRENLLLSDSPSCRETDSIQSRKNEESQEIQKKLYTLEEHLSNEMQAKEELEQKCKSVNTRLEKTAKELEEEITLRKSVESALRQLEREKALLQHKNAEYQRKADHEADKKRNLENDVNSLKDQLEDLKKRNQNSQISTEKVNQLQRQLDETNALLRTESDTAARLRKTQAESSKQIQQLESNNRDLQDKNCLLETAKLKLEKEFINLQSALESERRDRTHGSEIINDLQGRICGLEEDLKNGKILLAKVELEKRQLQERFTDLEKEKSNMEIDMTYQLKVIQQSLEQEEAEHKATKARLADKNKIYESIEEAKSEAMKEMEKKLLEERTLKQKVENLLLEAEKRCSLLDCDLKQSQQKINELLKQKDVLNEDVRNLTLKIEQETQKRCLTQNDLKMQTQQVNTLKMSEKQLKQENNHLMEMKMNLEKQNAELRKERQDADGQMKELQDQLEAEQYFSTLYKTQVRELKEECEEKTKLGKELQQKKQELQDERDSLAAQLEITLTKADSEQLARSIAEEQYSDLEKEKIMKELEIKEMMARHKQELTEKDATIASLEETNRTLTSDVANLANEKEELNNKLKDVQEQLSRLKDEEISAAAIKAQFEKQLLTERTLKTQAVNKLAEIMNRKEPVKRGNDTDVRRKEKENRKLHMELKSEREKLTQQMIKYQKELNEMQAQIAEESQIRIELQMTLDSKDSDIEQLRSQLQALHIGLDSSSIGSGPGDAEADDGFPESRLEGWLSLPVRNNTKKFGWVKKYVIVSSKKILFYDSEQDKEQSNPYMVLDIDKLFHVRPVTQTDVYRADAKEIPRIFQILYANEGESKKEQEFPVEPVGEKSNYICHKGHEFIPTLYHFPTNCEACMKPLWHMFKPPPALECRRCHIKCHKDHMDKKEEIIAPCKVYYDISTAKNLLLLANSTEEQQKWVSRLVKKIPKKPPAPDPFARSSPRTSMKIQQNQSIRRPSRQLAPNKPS", "test": "Selectivity interaction (Ambit KINOMEscan and KiNATiv profiling in Jurkat cells) EUB0000090b ROCK2", "assay_type": "cell-based", "conditions": "at 1 µM"}, "[2]": {"target": "T1, Serine/threonine-protein kinase DCLK2 (Homo sapiens) (UniProt Q8N568)", "T1 sequence (whole entry)": "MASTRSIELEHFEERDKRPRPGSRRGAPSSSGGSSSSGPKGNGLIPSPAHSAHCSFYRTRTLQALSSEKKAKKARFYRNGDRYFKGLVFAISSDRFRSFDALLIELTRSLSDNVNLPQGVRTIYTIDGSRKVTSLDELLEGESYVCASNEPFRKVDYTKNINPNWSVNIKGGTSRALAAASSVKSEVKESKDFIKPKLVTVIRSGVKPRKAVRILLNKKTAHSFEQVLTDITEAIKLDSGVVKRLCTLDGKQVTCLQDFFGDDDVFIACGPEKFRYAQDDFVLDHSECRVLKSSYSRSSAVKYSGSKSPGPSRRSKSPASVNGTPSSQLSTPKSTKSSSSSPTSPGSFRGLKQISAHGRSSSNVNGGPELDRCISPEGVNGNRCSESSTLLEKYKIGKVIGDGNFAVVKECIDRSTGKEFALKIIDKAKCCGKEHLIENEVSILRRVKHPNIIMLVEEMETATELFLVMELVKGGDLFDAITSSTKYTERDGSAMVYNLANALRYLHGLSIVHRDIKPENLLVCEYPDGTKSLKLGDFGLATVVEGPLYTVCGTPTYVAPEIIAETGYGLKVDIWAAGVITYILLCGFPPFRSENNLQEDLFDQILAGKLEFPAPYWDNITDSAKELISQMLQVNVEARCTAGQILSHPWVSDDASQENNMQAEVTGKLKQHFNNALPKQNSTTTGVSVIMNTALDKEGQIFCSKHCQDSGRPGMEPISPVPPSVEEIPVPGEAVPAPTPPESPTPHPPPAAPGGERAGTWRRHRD", "test": "Selectivity interaction (Ambit KINOMEscan and KiNATiv profiling in Jurkat cells) EUB0000090b DCLK2", "assay_type": "cell-based", "conditions": "at 1 µM"}, "[3]": {"target": "Death-associated protein kinase 3 (Homo sapiens) (UniProt O43293)", "sequence (O43293 whole entry, looked up)": "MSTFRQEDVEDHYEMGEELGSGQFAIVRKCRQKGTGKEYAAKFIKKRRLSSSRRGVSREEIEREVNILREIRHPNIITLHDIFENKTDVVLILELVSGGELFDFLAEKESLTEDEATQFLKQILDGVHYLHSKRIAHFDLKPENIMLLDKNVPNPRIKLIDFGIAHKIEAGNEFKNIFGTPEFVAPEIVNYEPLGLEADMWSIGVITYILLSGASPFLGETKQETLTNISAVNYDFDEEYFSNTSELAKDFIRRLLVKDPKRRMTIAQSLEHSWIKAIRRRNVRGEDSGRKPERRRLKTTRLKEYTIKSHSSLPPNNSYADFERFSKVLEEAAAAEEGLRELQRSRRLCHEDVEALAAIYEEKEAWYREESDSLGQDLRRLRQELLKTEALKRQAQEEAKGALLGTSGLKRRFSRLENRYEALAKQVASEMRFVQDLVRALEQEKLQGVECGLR", "test": "Selectivity interaction (Kinase panel (Z-LYTE Assay)) EUB0001632a DAPK3", "conditions": "at 10 µM"}, "[4]": {"target": "Ribosomal protein S6 kinase alpha-6 (Homo sapiens, UniProt Q9UK32)", "sequence (Q9UK32 whole entry)": "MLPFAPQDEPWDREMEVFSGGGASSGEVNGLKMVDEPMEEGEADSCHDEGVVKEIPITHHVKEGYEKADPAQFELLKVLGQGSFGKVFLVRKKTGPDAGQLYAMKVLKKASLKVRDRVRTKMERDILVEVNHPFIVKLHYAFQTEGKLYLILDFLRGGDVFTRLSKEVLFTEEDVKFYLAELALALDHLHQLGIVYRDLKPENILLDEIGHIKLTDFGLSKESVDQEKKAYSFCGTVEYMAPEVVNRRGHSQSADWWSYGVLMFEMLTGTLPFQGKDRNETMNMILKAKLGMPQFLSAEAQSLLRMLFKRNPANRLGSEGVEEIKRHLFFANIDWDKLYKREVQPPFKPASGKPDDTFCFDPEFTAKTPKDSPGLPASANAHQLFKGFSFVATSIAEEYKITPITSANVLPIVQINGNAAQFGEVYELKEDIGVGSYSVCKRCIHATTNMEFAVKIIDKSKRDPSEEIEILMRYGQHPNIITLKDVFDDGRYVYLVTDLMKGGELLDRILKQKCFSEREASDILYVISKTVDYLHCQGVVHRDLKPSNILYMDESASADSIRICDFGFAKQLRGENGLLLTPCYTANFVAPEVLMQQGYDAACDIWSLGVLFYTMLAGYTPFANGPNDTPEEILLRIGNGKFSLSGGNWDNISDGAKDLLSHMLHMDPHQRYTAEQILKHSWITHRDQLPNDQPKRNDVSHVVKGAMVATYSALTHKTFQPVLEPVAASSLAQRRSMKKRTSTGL", "test": "Selectivity interaction (KinomeScan (DiscoverX)) EUB0000695a RPS6KA6", "conditions": "at 100 nM"}, "[5]": {"target": "Cyclin-dependent kinase 5 (Homo sapiens, UniProt Q00535)", "sequence (Q00535 whole entry, looked up)": "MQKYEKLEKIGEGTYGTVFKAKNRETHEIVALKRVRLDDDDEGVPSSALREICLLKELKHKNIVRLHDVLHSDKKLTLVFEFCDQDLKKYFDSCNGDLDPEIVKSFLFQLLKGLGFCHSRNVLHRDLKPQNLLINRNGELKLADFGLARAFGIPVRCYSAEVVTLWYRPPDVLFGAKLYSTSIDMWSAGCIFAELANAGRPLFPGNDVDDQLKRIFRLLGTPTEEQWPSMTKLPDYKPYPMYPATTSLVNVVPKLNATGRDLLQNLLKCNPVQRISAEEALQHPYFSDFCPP", "test": "Selectivity interaction (KinomeScan (DiscoverX)) EUB0000229b CDK5", "conditions": "at 10 µM"}, "[6]": {"target": "Serine/threonine-protein kinase SIK3 (Homo sapiens) (UniProt Q9Y2K2)", "test": "Selectivity interaction (KinomeScan (DiscoverX)) EUB0001079a SIK3", "conditions": "at 1 µM"}, "[7]": {"target": "Phosphatidylinositol 4-phosphate 5-kinase type-1 alpha (Homo sapiens) (UniProt Q99755)", "sequence (Q99755 whole entry)": "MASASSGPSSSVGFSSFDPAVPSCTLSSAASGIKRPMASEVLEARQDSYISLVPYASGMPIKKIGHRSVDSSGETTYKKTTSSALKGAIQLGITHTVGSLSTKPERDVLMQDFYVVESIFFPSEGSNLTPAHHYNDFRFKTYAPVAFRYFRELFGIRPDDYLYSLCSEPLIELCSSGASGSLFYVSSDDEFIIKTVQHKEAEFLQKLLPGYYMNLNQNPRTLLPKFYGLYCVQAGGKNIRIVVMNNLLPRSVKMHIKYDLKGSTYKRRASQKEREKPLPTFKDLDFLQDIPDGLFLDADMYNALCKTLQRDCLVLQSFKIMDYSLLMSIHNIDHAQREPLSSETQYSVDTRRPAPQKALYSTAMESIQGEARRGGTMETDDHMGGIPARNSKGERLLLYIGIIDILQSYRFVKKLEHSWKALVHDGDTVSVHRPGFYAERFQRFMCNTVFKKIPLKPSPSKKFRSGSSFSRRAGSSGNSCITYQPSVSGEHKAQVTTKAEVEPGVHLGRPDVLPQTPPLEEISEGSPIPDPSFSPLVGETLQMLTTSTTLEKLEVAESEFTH", "test": "Selectivity interaction (KinomeScan (DiscoverX)) EUB0001079a PIP5K1A", "conditions": "at 1 µM"}, "[8]": {"target": "Receptor-interacting serine/threonine-protein kinase 2 (Homo sapiens, UniProt O43353)", "sequence (O43353 whole entry)": "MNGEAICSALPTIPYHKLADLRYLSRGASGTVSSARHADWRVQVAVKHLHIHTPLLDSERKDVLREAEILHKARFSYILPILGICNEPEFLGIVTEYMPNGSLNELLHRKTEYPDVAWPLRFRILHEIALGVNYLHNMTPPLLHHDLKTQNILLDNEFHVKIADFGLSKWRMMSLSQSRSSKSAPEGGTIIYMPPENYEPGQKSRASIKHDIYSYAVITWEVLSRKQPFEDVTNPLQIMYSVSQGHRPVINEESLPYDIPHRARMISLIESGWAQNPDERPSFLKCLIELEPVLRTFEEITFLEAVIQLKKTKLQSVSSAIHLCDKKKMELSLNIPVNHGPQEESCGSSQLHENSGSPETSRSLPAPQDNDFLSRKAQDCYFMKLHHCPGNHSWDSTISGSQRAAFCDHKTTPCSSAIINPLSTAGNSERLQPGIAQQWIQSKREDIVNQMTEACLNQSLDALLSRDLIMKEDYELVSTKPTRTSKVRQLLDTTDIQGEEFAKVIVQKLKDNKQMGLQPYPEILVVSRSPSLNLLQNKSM", "test": "Selectivity interaction (ProQinase) EUB0000171b RIPK2"}, "[9]": {"target": "Casein kinase I isoform epsilon (Homo sapiens, UniProt P49674)", "sequence (P49674 whole entry, looked up, canonical isoform)": "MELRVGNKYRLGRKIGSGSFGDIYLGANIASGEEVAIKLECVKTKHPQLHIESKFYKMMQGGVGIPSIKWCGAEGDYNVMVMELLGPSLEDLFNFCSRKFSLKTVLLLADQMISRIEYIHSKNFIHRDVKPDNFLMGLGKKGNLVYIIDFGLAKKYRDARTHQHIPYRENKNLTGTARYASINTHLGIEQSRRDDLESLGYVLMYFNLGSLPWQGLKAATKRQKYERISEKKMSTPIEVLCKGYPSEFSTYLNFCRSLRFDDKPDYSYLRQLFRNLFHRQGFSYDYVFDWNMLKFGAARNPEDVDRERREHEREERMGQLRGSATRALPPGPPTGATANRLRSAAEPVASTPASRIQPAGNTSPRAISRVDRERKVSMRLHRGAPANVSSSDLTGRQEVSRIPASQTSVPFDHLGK", "test": "Selectivity interaction (KinomeScan (DiscoverX)) EUB0000092b CSNK1E", "conditions": "at 10 µM"}, "[10]": {"target": "T2, Serine/threonine-protein kinase 17B (Homo sapiens) (UniProt O94768)", "T2 sequence (whole entry)": "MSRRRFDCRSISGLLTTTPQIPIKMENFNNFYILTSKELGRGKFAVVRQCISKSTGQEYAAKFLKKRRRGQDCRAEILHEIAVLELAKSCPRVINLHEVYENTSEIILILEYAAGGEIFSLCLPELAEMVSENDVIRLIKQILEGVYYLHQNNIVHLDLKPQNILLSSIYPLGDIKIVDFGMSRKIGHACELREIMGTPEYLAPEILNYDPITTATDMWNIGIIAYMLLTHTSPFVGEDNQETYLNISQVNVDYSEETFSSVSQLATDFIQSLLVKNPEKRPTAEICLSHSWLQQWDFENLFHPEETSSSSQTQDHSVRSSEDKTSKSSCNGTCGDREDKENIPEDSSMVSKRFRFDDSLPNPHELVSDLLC", "test": "Selectivity interaction (KinomeScan (DiscoverX)) EUB0000092b STK17B", "conditions": "at 10 µM"}, "[11]": {"target": "T3, Serine/threonine-protein kinase Nek11 (Homo sapiens) (UniProt Q8NG66)", "T3 sequence (whole entry)": "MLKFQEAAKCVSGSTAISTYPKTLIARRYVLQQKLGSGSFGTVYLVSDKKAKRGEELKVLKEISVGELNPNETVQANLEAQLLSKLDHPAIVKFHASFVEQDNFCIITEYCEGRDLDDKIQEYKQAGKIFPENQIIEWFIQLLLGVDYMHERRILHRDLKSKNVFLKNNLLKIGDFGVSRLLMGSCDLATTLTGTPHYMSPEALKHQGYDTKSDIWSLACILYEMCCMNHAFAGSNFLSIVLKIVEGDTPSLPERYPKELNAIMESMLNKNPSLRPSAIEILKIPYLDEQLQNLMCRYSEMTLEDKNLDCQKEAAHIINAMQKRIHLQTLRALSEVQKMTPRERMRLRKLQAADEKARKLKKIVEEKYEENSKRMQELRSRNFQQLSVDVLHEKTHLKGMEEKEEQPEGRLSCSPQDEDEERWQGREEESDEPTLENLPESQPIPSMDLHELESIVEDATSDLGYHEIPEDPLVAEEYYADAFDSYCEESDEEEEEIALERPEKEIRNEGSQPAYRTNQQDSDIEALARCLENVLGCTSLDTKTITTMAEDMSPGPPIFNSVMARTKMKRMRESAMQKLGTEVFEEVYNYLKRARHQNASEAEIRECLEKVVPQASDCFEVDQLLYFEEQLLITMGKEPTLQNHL", "test": "Selectivity interaction (KinomeScan (DiscoverX)) EUB0000045b NEK11"}, "[12]": {"target": "T4, Dual specificity mitogen-activated protein kinase kinase 4 (Homo sapiens) (UniProt P45985)", "T4 sequence (whole entry)": "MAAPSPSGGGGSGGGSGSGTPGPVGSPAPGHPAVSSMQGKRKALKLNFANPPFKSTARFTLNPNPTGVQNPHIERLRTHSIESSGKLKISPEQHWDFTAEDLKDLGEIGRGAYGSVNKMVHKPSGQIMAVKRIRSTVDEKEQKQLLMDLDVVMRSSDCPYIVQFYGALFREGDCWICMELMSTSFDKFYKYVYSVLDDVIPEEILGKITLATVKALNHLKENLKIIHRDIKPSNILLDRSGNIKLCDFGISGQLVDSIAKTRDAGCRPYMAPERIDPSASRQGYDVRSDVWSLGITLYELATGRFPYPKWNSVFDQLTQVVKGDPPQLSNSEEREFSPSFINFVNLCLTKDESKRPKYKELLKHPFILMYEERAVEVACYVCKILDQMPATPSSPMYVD", "test": "Selectivity interaction (Kinase panel (DSF assay)) EUB0001558a MAP2K4"}},
  "data": [
    {"smiles": "CN(C)C/C=C/C(=O)Nc1ccc(C(=O)N2CCCC(Nc3ncc(Cl)c(-c4c[nH]c5ccccc45)n3)C2)cc1", "note": "(centres undefined)", "values": [
      {"measurement": "% of control", "setting": "[1]", "result": 69, "unit": "%"},
      {"measurement": "% of control", "setting": "[2]", "result": 78, "unit": "%"}
    ]},
    {"smiles": "Cn1cc(-n2cnc3c(NCc4nc5cc(Cl)c(Cl)cc5[nH]4)nc(N4CCOCC4)nc32)cn1", "values": [
      {"measurement": "% of control", "setting": "[3]", "result": -3.73, "unit": "%"}
    ]},
    {"smiles": "Cc1cc(F)c(C(=O)Nc2cccc(-c3nncn3C(C)C)n2)cc1-n1cnc(C2CC2)c1", "values": [
      {"measurement": "% of control", "setting": "[4]", "result": 84, "unit": "%"}
    ]},
    {"smiles": "COc1cc(N(C)c2ccnc3ccc(C(F)(F)F)cc23)cc(OC)c1OC", "values": [
      {"measurement": "% binding", "setting": "[5]", "result": 97, "unit": "%"}
    ]},
    {"smiles": "Nc1cnc(N2CCc3cc(S(=O)(=O)Nc4c(F)cc(Cl)cc4F)cc(N4CCCC4=O)c32)nc1", "note": "[TP-020n]", "values": [
      {"measurement": "% of control", "setting": "[6]", "result": 83, "unit": "%"},
      {"measurement": "% of control", "setting": "[7]", "result": 100, "unit": "%"}
    ]},
    {"smiles": "C=CC(=O)Nc1cccc(C(=O)Nc2ccc(Nc3cc(-c4[nH]c(SC)nc4C)ccn3)cc2)c1", "values": [
      {"measurement": "% of control", "setting": "[8]; at 1 µM", "result": 77, "unit": "%"},
      {"measurement": "% of control", "setting": "[8]; at 5 µM", "result": 43, "unit": "%"}
    ]},
    {"smiles": "CCC(=O)N1CCN(c2ccc(-n3c(=O)ccc4cnc5ccc(-c6cnc7ccccc7c6)cc5c43)cc2C(F)(F)F)CC1", "values": [
      {"measurement": "% of control", "setting": "[9]", "result": 59, "unit": "%"},
      {"measurement": "% of control", "setting": "[10]", "result": 67, "unit": "%"}
    ]},
    {"smiles": "C=CC(=O)Nc1cc(-n2c(=O)ccc3cnc4ccc(-c5ccc(NS(C)(=O)=O)cc5)cc4c32)ccc1C", "values": [
      {"measurement": "% of control", "setting": "[11]; at 1 µM", "result": 100, "unit": "%"},
      {"measurement": "% of control", "setting": "[11]; at 10 µM", "result": 100, "unit": "%"}
    ]},
    {"smiles": "CC(C)(O)[C@H](F)CN1Cc2cc(NC(=O)c3cnn4cccnc34)c(N3CCOCC3)cc2C1=O", "values": [
      {"measurement": "dTM", "setting": "[12]", "result": 0.9, "unit": "K"}
    ]}
  ]
}
